In patent US12209096B2, “Compounds and compositions for inducing chondrogenesis” (NOVARTIS AG, priority 2017, dated 2025) one finds EC50 and Emax data, which are given here for 26 compounds.

The structures appear in SMILES notation. Where only a bound is given, the exact number is not on record here.

This assay has as its system NHACs. The assay is described as follows: calcium flux assay. The class given is cell-based, human. Conditions: Homo sapiens; for Emax: read-out: (A) % Efficacy. The method, boiled down:
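FLIPR fluorescence (ex 470–495 nm, em 515–575 nm) was read before and after compound dispense at the indicated dose. Chondrocytes (NHACs), 2000 cells/well, had been dye-loaded 24 h after plating with Calcium 5 in HBSS/HEPES plus 5 mM probenecid, 1 h, room temperature.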
(In general: Calcium assays in cells follow changes in intracellular calcium, usually with a dye or a luminescent sensor.)

For orientation: EC50 means the concentration that produces a half-maximal response. Regarding `Cc1cc([C@@H]2[C@@H](C(=O)Nc3cccc(C(F)(F)F)c3)[C@@H]3O[C@H]2C[C@H]3F)ccn1` [Example 108, (1S,2R,3S,4S,6R)-6-fluoro-3-(2-methylpyridin-4-yl)-N-(3-(trifluoromethyl)phenyl)-7-oxabicyclo[2.2.1]heptane-2-carboxamide], the EC50 was 27 µM and the Emax came to 137%.
For `Cc1cc([C@@H]2[C@@H]3O[C@@H](C[C@H]3O)[C@@H]2C(=O)Nc2cnc(Cl)c(Cl)c2)ccn1` (single isomer, unassigned) [Example 7], in that order: above 50 µM and 0%.
For `COc1ccc(NC(=O)[C@@H]2[C@@H](c3ccnc(C)c3)[C@H]3O[C@@H]2C[C@H]3F)cn1` [Example 97, (1R,2R,3S,4R,5R)-5-fluoro-N-(6-methoxypyridin-3-yl)-3-(2-methylpyridin-4-yl)-7-oxabicyclo[2.2.1]heptane-2-carboxamide], in that order: above 50 µM and 2%.
For `Cc1cc([C@H]2[C@H]3O[C@H](C[C@@H]3F)[C@H]2C(=O)Nc2ccc(Cl)c(Cl)c2)ccn1` [Example 16, (1R,2S,3S,4R,5S)-N-(3,4-dichlorophenyl)-5-fluoro-3-(2-methylpyridin-4-yl)-7-oxabicyclo[2.2.1]heptane-2-carboxamide], in that order: 21 µM and 105%.
For the compound `O=C(Nc1cccc(C(F)(F)F)c1)[C@@H]1[C@@H]2O[C@@H](C[C@H]2O)[C@@H]1c1ccncc1` [Example 12, (1S,2S,3S,4S,6R)-6-hydroxy-3-(pyridin-4-yl)-N-[3-(trifluoromethyl)phenyl]-7-oxabicyclo[2.2.1]heptane-2-carboxamide], the EC50 was above 50 µM and the Emax turned out to be 22%.
As to `O=C(Nc1ccc(Cl)c(Cl)c1)[C@H]1[C@@H]2O[C@@H]([C@H]3C[C@H]32)[C@@H]1c1ccncc1` [Example 137, (1S,2S,4R,5R,6R,7S)—N-(3,4-dichlorophenyl)-7-(pyridin-4-yl)-8-oxatricyclo[3.2.1.0^2,4]octane-6-carboxamide], the EC50 was 21 µM and the Emax turned out to be 202%.
`O=C(Nc1cnc(Cl)c(Cl)c1)[C@@H]1[C@H]2O[C@H]([C@@H]3C[C@@H]32)[C@H]1c1ccnc(F)c1F` (single isomer, unassigned) [Example 73]: the EC50 is 16 µM and the Emax was determined as 127%.
Taken in the same sequence, the figures for `Cc1cc([C@@H]2[C@@H]3O[C@@H]([C@H]4C[C@H]43)[C@H]2C(=O)Nc2cccc(C(F)(F)F)c2)ccn1` (single isomer, unassigned) [Example 121b] were 22 µM and 92%.
With `Cc1cc([C@H]2[C@H]3O[C@H]([C@@H]4C[C@@H]43)[C@@H]2C(=O)Nc2cccc(C(F)(F)F)c2)ccn1` (racemic) [Example 121, rac-(1S,2S,4R,5R,6R,7S)-7-(2-methylpyridin-4-yl)-N-(3-(trifluoromethyl)phenyl)-8-oxatricyclo[3.2.1.0^2,4]octane-6-carboxamide], the EC50 stood at 26 µM and the Emax was determined as 353%.
For `Cc1cc([C@H]2[C@H]3O[C@H]([C@H](O)[C@@H]3O)[C@@H]2C(=O)Nc2ccnc(C(F)(F)F)c2)ccn1` [Example 161, (1S,2R,3S,4R,5S,6R)-5,6-dihydroxy-3-(2-methylpyridin-4-yl)-N-(2-(trifluoromethyl)pyridin-4-yl)-7-oxabicyclo[2.2.1]heptane-2-carboxamide], in that order: above 50 µM and 29%.
Take `O=C(Nc1ccc(Cl)c(Cl)c1)[C@H]1[C@@H](c2cc(F)ncc2F)[C@H]2O[C@@H]1C[C@@H]2O` [Example 58, (1R,2S,3S,4R,5S)—N-(3,4-dichlorophenyl)-3-(2,5-difluoropyridin-4-yl)-5-hydroxy-7-oxabicyclo[2.2.1]heptane-2-carboxamide]: the EC50 is above 50 µM and the Emax worked out at 0%.
For `Cc1cc([C@H]2[C@H]3O[C@H](C[C@@H]3O)[C@H]2C(=O)Nc2cc(Cl)c(Cl)cn2)ccn1` [Example 4, (1R,2S,3S,4R,5S)-N-(4,5-dichloropyridin-2-yl)-5-hydroxy-3-(2-methylpyridin-4-yl)-7-oxabicyclo[2.2.1]heptane-2-carboxamide], in that order: above 50 µM and 28%.
For `O=C(Nc1ccc(Cl)c(Cl)c1)[C@H]1[C@@H](c2cnc(F)nc2)[C@H]2O[C@@H]1C[C@@H]2O` [Example 61, (1R,2S,3S,4R,5S)—N-(3,4-dichlorophenyl)-3-(2-fluoropyrimidin-5-yl)-5-hydroxy-7-oxabicyclo[2.2.1]heptane-2-carboxamide], in that order: above 50 µM and 24%.
In the case of `O=C(Nc1cccc(C(F)(F)F)c1)[C@H]1[C@@H]2O[C@@H]([C@H]3C[C@H]32)[C@@H]1c1ccncc1` [Example 131, (1S,2S,4R,5R,6R,7S)-7-(pyridin-4-yl)-N-(3-(trifluoromethyl)phenyl)-8-oxatricyclo[3.2.1.0^2,4]octane-6-carboxamide], the concentration for a half-maximal effect (EC50) worked out at 19 µM and the Emax worked out at 360%.
For `COc1cc([C@H]2[C@H]3O[C@H]([C@@H]4C[C@@H]43)[C@H]2C(=O)Nc2cnc(Cl)c(Cl)c2)ccn1` [Example 1, (1S,2S,4R,5R,6S,7S)—N-(5,6-dichloropyridin-3-yl)-7-(2-methoxypyridin-4-yl)-8-oxatricyclo[3.2.1.0^2,4]octane-6-carboxamide], in that order: 3.4 µM and 164%.
Taken in the same sequence, the figures for `Cc1ncc([C@H]2[C@H]3O[C@H](C[C@@H]3O)[C@H]2C(=O)Nc2ccc(Cl)c(Cl)c2)cn1` [Example 56, (1R,2S,3S,4R,5S)—N-(3,4-dichlorophenyl)-5-hydroxy-3-(2-methylpyrimidin-5-yl)-7-oxabicyclo[2.2.1]heptane-2-carboxamide] were above 50 µM and 0%.
For `Cc1cc([C@H]2[C@H]3O[C@H]([C@H](O)[C@@H]3O)[C@@H]2C(=O)Nc2cccc(C(F)(F)F)c2)ccn1` [Example 158, (1S,2R,3S,4R,5S,6R)-5,6-dihydroxy-3-(2-methylpyridin-4-yl)-N-(3-(trifluoromethyl)phenyl)-7-oxabicyclo[2.2.1]heptane-2-carboxamide], in that order: above 50 µM and 31%.
Take `Cc1cc([C@@H]2[C@@H](C(=O)Nc3cnc(Cl)c(Cl)c3)[C@@H]3O[C@H]2C[C@H]3F)ccn1` [Example 110, (1S,2R,3S,4S,6R)—N-(5,6-dichloropyridin-3-yl)-6-fluoro-3-(2-methylpyridin-4-yl)-7-oxabicyclo[2.2.1]heptane-2-carboxamide]: the EC50 was 28 µM and the Emax amounted to 199%.
Taken in the same sequence, the figures for `Cc1cc([C@H]2[C@H](C(=O)Nc3ccc(Cl)c(Cl)c3)[C@@H]3C[C@](C)(O)[C@H]2O3)ccn1` [Example 179, (1S,2S,3R,4S,5S)—N-(3,4-dichlorophenyl)-5-hydroxy-5-methyl-3-(2-methylpyridin-4-yl)-7-oxabicyclo[2.2.1]heptane-2-carboxamide] were above 50 µM and 22%.
For `O=C(Nc1cccc(C(F)(F)F)c1)[C@@H]1[C@@H](c2ccncc2)[C@H]2O[C@@H]1C[C@@H]2O` [Example 88, (1R,2R,3S,4R,5S)-5-hydroxy-3-(pyridin-4-yl)-N-(3-(trifluoromethyl)phenyl)-7-oxabicyclo[2.2.1]heptane-2-carboxamide], in that order: above 50 µM and 27%.
Taken in the same sequence, the figures for `O=C(Nc1ccc(Cl)c(Cl)c1)[C@@H]1[C@@H](c2ccnc(F)c2)[C@H]2O[C@@H]1C[C@H]2NCCO` [Example 173, (1R,2R,3S,4R,5R)—N-(3,4-dichlorophenyl)-3-(2-fluoropyridin-4-yl)-5-((2-hydroxyethyl)amino)-7-oxabicyclo[2.2.1]heptane-2-carboxamide] were 27 µM and 54%.
`O=C(Nc1cnc(Cl)c(Cl)c1)[C@@H]1[C@@H](c2ccnc(F)c2)[C@H]2O[C@@H]1C[C@@H]2O` (racemic) [Example 90, rac-(1R,2R,3S,4R,5S)—N-(5,6-dichloropyridin-3-yl)-3-(2-fluoropyridin-4-yl)-5-hydroxy-7-oxabicyclo[2.2.1]heptane-2-carboxamide]: the 50% effective concentration (EC50) was above 50 µM and the Emax came to 45%.
On to `Nc1ncc([C@H]2[C@H]3O[C@H]([C@@H]4C[C@@H]43)[C@@H]2C(=O)Nc2ccc(Cl)c(Cl)c2)cn1` [Example 132, (1S,2S,4R,5R,6R,7S)-7-(2-aminopyrimidin-5-yl)-N-(3,4-dichlorophenyl)-8-oxatricyclo[3.2.1.0^2,4]octane-6-carboxamide], for which the EC50 came out at 18 µM and the Emax turned out to be 321%.
For `O=C(Nc1ccc(Cl)c(Cl)c1)[C@H]1[C@@H](c2ccnc(F)c2)[C@H]2O[C@@H]1C[C@@H]2O` (racemic) [Example 52, rac-(1R,2S,3S,4R,5S)—N-(3,4-dichlorophenyl)-3-(2-fluoropyridin-4-yl)-5-hydroxy-7-oxabicyclo[2.2.1]heptane-2-carboxamide], in that order: above 50 µM and 4%.
For `Cc1ccc([C@@H]2[C@@H](C(=O)Nc3ccc(Cl)c(Cl)c3)[C@@H]3O[C@H]2C[C@H]3F)cn1` [Example 116, (1S,2R,3S,4S,6R)—N-(3,4-dichlorophenyl)-6-fluoro-3-(6-methylpyridin-3-yl)-7-oxabicyclo[2.2.1]heptane-2-carboxamide], in that order: 23 µM and 58%.
Regarding `CN(C)c1ncc([C@H]2[C@H]3O[C@H](C[C@@H]3O)[C@H]2C(=O)Nc2ccc(Cl)c(Cl)c2)cn1` [Example 55, (1R,2S,3S,4R,5S)—N-(3,4-dichlorophenyl)-3-(2-(dimethylamino)pyrimidin-5-yl)-5-hydroxy-7-oxabicyclo[2.2.1]heptane-2-carboxamide], the EC50 was above 50 µM and the Emax came out at 0%.
